Patent US20220081421A1, “ANTIBACTERIAL COMPOUNDS” (Forge Therapeutics, Inc., priority 2018, published 2022)
In brackets after ≈: the same amount, converted by molar mass.

Key:
[1] = tested on: K. pneumoniae; experiment: MIC by broth microdilution (CLSI), K. pneumoniae; assay type: cell-based; settings: Klebsiella pneumoniae, broth microdilution, cation adjusted Mueller-Hinton Broth, 35° C., 18-24 h; read-out: K. pneumoniae MIC
Summary of the method: (§1)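 CLSI broth microdilution in cation-adjusted Mueller-Hinton broth with 2-fold serial drug dilutions; final inoculum 3×10^5–7×10^5 CFU/mL. Incubated 18-24 h at 35° C in ambient air; MIC is the lowest concentration preventing visible growth (OD600 nm<0.05).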

[2] = tested on: E. coli; experiment: MIC by broth microdilution (CLSI), E. coli; assay type: cell-based; settings: Escherichia coli, broth microdilution, cation adjusted Mueller-Hinton Broth, 35° C., 18-24 h; read-out: E. coli MIC
Summary of the method: as §1

Structure (SMILES)	MIC [1] [µg/mL]	MIC [2] [µg/mL]
O=c1[nH]cnc(CCc2ccc(C#Cc3ccc(CNC4CCOC4)cc3)cn2)c1O (stereo not drawn) [Compound 20, 5-hydroxy-6-(2-(5-((4-(((tetrahydrofuran-3-yl)amino)methyl)phenyl)ethynyl)pyridin-2-yl)ethyl)pyrimidin-4(3H)-one]	8 to 32 (≈ 19.2 to 76.8 µM)	< 1
CC(=O)NCC(Cc1ccc(C#CC#CC2CC2)c(F)c1)c1nc[nH]c(=O)c1O (stereo not drawn) [Compound 64, N-(3-(4-(cyclopropylbuta-1,3-diyn-1-yl)-3-fluorophenyl)-2-(5-hydroxy-6-oxo-1,6-dihydropyrimidin-4-yl)propyl)acetamide]	1 to 8 (≈ 2.54 to 20.3 µM)	1 to 8 (≈ 2.54 to 20.3 µM)
O=C(Cc1nc[nH]c(=O)c1O)N1CCC(C#Cc2ccc(CN3CCOCC3)cc2)CC1 [Compound 77, 5-hydroxy-6-(2-(4-((4-(morpholinomethyl)phenyl)ethynyl)piperidin-1-yl)-2-oxoethyl)pyrimidin-4(3H)-one]	> 32	8 to 32 (≈ 18.3 to 73.3 µM)
